In patent US20150301067A1, “METHODS AND ASSAYS FOR FACIOSCAPULOHUMERAL MUSCULAR DYSTROPHY” (UNIVERSITY OF WASHINGTON THROUGH ITS CENTER FOR …, priority 2012, published 2015):
Entries after “also recorded” stand apart in the source; their conditions may differ.

Tests used:
FSHD-myotubes = experiment: DUX4-mediated myotube death / apoptosis in FSHD myotubes differentiated in KOSR medium; type: cell-based, human; conditions: for DUX4-mediated myotube death: FSHD-myotubes, KOSR differentiation medium, data not shown
Procedure: Primary human myoblasts were obtained by written informed consent through the Fields Center at the University of Rochester cell bank. […] Pharmacological inhibitor of glycogen synthase kinase-3-β (GSKi) was used at a final concentration of 3 μM (CHIR99021, STEMGENT; Cambridge. Mass.).
(§1) Immunofluorescent staining for DUX4 was performed using the E5-5 rabbit monoclonal antibody to the C-terminus of DUX4 ^34. Staining was performed by fixing the cells in 4% paraformaldehyde for 10 mins at room temperature, washing with PBS, permeablizing with 0.5% TritonX-100 in PBS for 10 mins at room temperature. The cells were then washed again in PBS and incubated overnight in a 1:10 dilution of the E5-5 antibody. The following day, the cells were washed 3×5 min in PBS and stained using a fluorescent conjugated secondary goat-anti rabbit secondary antibody for 1-2 hr at room temperature. Following a final wash, the cells were counterstained with 4′,6-Diamidino-2-phenylindole dihydrochloride (DAPI, SIGMA ALDRICH), and visualized by microscopy using UV illumination.
To quantify DUX4 expression, the Nikon Ti Eclipse microscope was programmed using the Nikon Elements software to take 36 pictures at random on a 35 mm culture dish, or to scan an entire well of a 384 well dish. These images were then manually inspected and DUX4 (+) nuclei counted. To determine the myotube index, the Nikon Elements software was used to create binary masks of the DAPI and MHC channels for each image. This technique created a border around each nucleus or cluster of nuclei which could then be used to measure the sum pixel intensity from the DAPI channel. The average sum pixel intensity for single nuclei from each image was determined, and used to calculate the number of nuclei within clusters. By intersecting the binary images from the DAPI and MHC channels the inventors could exclude the nuclei that were outside of MHC(+) myotubes, and create a myotube fusion index. The myotube fusion index was compared to manual counts to confirm accuracy of the calculations.

DUX4 [1] = experiment: Immunofluorescent count of DUX4(+) nuclei in MHC(+) myotubes; type: cell-based, human; conditions: for reduction in the number of nuclei expressing DUX4: FSHD1(2349) myotubes, KOSR medium
Procedure: (§2) Primary human myoblasts were obtained by written informed consent through the Fields Center at the University of Rochester cell bank. Myoblasts were grown in F10 medium (INVITROGEN, Carlsbad, Calif.) supplemented with 20% fetal bovine serum (FBS; THERMO SCIENTIFIC (HYCLONE), and 50 U/50 μg penicillin/streptomycin (Pen-Strep; INVITROGEN), 10 ng bFGF (INVITROGEN), and 1 μM dexamethasone (SIGMA ALDRICH; St. Louis, […].)^9. Differentiation was induced using F10 medium supplemented with 1% equine serum and ITS supplement (insulin 0.1%, 0.000067% sodium selenite, 0.055% transferrin; INVITROGEN), or in DMEM:F12 (1:1) with 3.151 g/L glucose, 10 mM non-essential amino acids (INVITROGEN), […] sodium pyruvate, 20% knockout serum replacer (INVITROGEN, #10828010). Pharmacological inhibitor of glycogen synthase kinase-3-β (GSKi) was used at a final concentration of 3 μM (CHIR99021, STEMGENT; Cambridge. Mass.). Recombinant human Wnt3A was used at a concentration of 250 ng/mL, and confirmed to be bioactive prior to use in the assays described herein.
as §1, with “Following a final wash, the cells were counterstained with 4′,6-Diamidino-2-phenylindole dihydrochloride (DAPI, SIGMA ALDRICH), and visualized by microscopy using UV illumination.” left out
To quantify DUX4 expression, the Nikon Ti Eclipse microscope was programmed using the Nikon Elements software to take 36 pictures at random on a 35 mm culture dish, or to scan an entire well of a 384 well dish. These images were then manually inspected and DUX4 (+) nuclei counted. […] The average sum pixel intensity for single nuclei from each image was determined, and used to calculate the number of nuclei within clusters. […]

DUX4 promoter = experiment: D4Z4(FFL) DUX4 promoter luciferase reporter in C2C12 cells; type: cell-based; conditions: 3 μM GSKi, vs DMSO
Procedure: The D4Z4 regulatory region controlling the expression of DUX4^31 was subcloned upstream of the open reading from of the pGL3-basic vector (pGL3) to make D4Z4(FFL). The D4Z4(FFL) was excised using XbaI/SpeI restriction enzymes and ligated into the SpeI site of a 3rd generation lentiviral vector multiple cloning site (pRRL-sinc-PPT-MCS; Gift from Dr. Grant Trobridge).
Cells transduced with D4Z4(FFL) lentivirus vector were seeded in a 96 well dish. Thirty minutes prior to the assay, Hoescht Dye was added to the cell culture medium to a final concentration of 5 μm, and 30 min later the plate was analyzed for DNA content by measuring fluorescence at 355 nm using a multiwell plate reader (ENVISION; PERKIN-ELMER). An equal volume of STEADY-GLO (PROMEGA) was added to each well, and transferred to an opaque dish. Luminescence was read using the plate reader, and normalized to DNA content for each well.

FSHD myotubes = experiment: Cell viability assay (ATP content normalized to DNA content); type: cell-based, human; conditions: cultured in the absence or presence of GSKi
Procedure: Hoescht Dye was added to cells in culture for 30 minutes at a final concentration of 5 μM. Following detachment with trypsin a 50 μL aliquot of the cells was assayed for fluorescence at 355 nm to give an absorbance value for DNA content. An equal volume of CELL TITRE GLO (PROMEGA) was then added to the aliquot, and luminescence was measured. The luminescent value was normalized to the absorbance value for DNA content.

DUX4 [2] = experiment: RT PCR of DUX4 transcripts in primary human cells; type: cell-based; conditions: normal(NR201) and FSHD2(2305) primary human cells, 3 μM GSKi
Procedure: as §2
RNA was isolated by TRIZOL extraction according to the manufacturers protocol (INVITROGEN), except that the final ethanol precipitate was resuspended 1×DNase I buffer and 5 U DNase I for 15 mins and the RNA was extracted with phenol/chloroform and precipitated with ethanol using RNase-free glycogen (NEW ENGLAND BIOLABS) as a carrier. […]

## Arsenic trioxide
FSHD-myotubes
  DUX4-mediated myotube death: efficiently prevented DUX4-mediated myotube death

## C[C@@H](N)[C@H]1CC[C@H](C(=O)Nc2ccncc2)CC1 [Y-27632]
FSHD-myotubes
  DUX4-mediated myotube death: also prevented DUX4-mediated myotube death
DUX4 [1]; 10 μM Y-27632
  reduction in the number of nuclei expressing DUX4: 10 fold

## O=C(NCc1ccccc1)c1csc(Nc2ccncn2)n1 [Thiazovivin]
FSHD-myotubes
  DUX4-mediated myotube death: also prevented DUX4-mediated myotube death
DUX4 [1]; 0.5 μM Thiazovivin
  reduction in the number of nuclei expressing DUX4: 10 fold

## O=C1O[C@H]([C@@H](O)CO)C(O)=C1O [ascorbic acid]
FSHD-myotubes
  DUX4-mediated myotube death: observed DUX4-dependent myotube apoptosis despite treatments

## Cc1c[nH]c(-c2cnc(NCCNc3ccc(C#N)cn3)nc2-c2ccc(Cl)cc2Cl)n1 [GSKi]
DUX4 promoter
  upregulation of DUX4 expression during myotube formation (luciferase activity normalized to DNA content): reduced the characteristic upregulation of DUX4 expression
FSHD myotubes
  ATP content of myoblasts or myotubes: No difference
DUX4 [2]
  upregulation of DUX4 expression during myotube formation (DUX4 transcripts): reduced the characteristic upregulation of DUX4 expression
FSHD-myotubes; FSHD myotubes, GSKi treatment alone (3 μM)
  myotube apoptosis: did not prevent myotube apoptosis; also recorded: insufficient to prevent apoptosis
DUX4 [1]; FSHD myoblasts differentiated in the presence of 3 μM GSKi, three cell lines
  reduction in the number of DUX4(+) nuclei in myotubes: greater than 50%

## OCCS [β-mercapto-ethanol]
FSHD-myotubes
  DUX4-mediated myotube death: observed DUX4-dependent myotube apoptosis despite treatments

## Cc1ccc(C(=O)Cn2c3c(sc2=N)CCCC3)cc1 [pifithrin-α]
FSHD-myotubes
  DUX4-mediated myotube death: efficiently prevented DUX4-mediated myotube death
